The target in experiment [1] is T1, alpha-glucosidase (Saccharomyces cerevisiae) (Saccharomyces cerevisiae, UniProt P53341).
T1 construct: purchased Sigma-Aldrich, Cape Town, South Africa
Briefly: biochemical. From the text:
(§1) EGCG (epigallocatechin gallate), Trolox (6-hydroxyl-2,5,7,8-tetramethylchroman-2-carboxylic acid), and other reagents such as TPTZ (2,4,6-tri[2-pyridyl]-s-triazine, iron (III) chloride hexahydrate, ABTS (2,2-azino-bis (3-ethylbenzo thiazoline-6-sulfonic acid) diammonium salt), AAPH (2,2-Azobis (2-methylpropionamidine) dihydrochloride), fluorescein sodium salt, potassium peroxodisulfate, copper sulfate, hydrogen peroxide, perchloric acid, alpha-glucosidase (Saccharomyces cerevisiae), alpha-amylase ([…]), and 3,5,di-nitro salicylic acid (DNS), sodium carbonate (Na2CO3), 4-nitro-phenyl-α-D-glucopyranoside (pNPG), di-sodium hydrogen phosphate, and sodium dihydrogen phosphate purchased from Sigma-Aldrich, Cape Town, South Africa. The organic solvents used in this study were supplied by Merck, Cape Town, South Africa. The NMR spectra were carried out on an Avance 400 MHz spectrometer (Bruker, Rheinstetten, Germany) using deuterated chloroform. Preparative HPLC was utilized for the purification of compounds using HPLC-grade methanol and distilled water.
Briefly, 20 μL of 5 mM substrate ([…]) was added to each well and left to incubate for 20 min at 37 °C. The reacting mixture was stopped after incubation by adding 0.1 M sodium carbonate (50 μL). The release of p-nitrophenol of the reacting mixture relating to the activity of the enzyme was read at a wavelength of 405 nm using a multiplate reader (Multiskan, Thermo Scientific).
All the measurements were repeated three times, and the IC50 was calculated using GraphPad Prism 5 version 5.01 (Graph pad software, Inc., La Jolla, CA, USA) statistical software. The data presented are means ± SD obtained from 96-well-plate readers for all in vitro experiments.

Experiment [2] is described as follows: Oxygen radical absorbance capacity (ORAC) assay. The conditions noted are these: Trolox equivalent; mean ± SD of triplicate. From the text: The method of Cao and Prior (1998) was employed to measure oxygen radical absorbance capacity (ORAC) and as reported in our previous study. The method measures the scavenging potential of compounds against the decomposition of peroxyl radical of 2,2-azobis (2-amino-propane) dihydrochloride (AAPH) as peroxyradical (ORAC ROO^•). The antioxidant capacity of a compound is a measure of the fading fluorescence of a probe (fluorescein) using the area under the curve (AUC) plot in relation to a control blank. The florescence of the probe was programmed to be measured at every two minutes for 2 h after the addition of AAPH at the excitation wavelength and emission set at 485 and 530 nm, respectively. The ORAC results were estimated following a regression equation (Y = a + bX + Cx^2) between Trolox concentration (Y in μM) and the net area under the fluorescence decay curve (X). ORAC values were expressed as μM Trolox equivalent (TE)/mg of test sample.

Experiment [3] can be described thus: Ferric-ion reducing antioxidant power (FRAP) assay. The conditions noted are these: ascorbic acid equivalent; mean ± SD of triplicate. On the procedure: The FRAP assay was assessed according to the method of Benzie and Strain (1996). FRAP reagent containing the mixture of acetate buffer (300 mM, pH 3.6), tripyridyl triazine (TPTZ) (10 mM in 40 mM HCl), and 20 mM FeCl3.6H2O in ratio 10:1:1 (v/v/v) was used. Extract, compounds, or standard (10 µL) was added to 300 µL FRAP reagent, incubated for 30 min in the dark at room temperature. The reacting mixture was read at a wavelength of 593 nm in a multiplate reader. Ascorbic acid was used as standard at varying concentrations of 0 to 1000 µM. The result was presented as a mean of independent triplicate experiments and expressed as µM ascorbic acid equivalents per milligram dry weight (µM AAE/g) of the test samples.

Experiment [4] can be described thus: Trolox equivalent absorbance capacity (TEAC) assay. Conditions: mean ± SD of triplicate. The procedure: The TEAC assay was evaluated following the method of Pellegrini et al. (1999). The working solution containing 88 µL of K2S2O8 (140 mM) and 5 mL ABTS (7 mM) was kept for at least 16 h in the dark at 25 °C. The working solution was then diluted after 16 h with ethanol until the absorbance read approximately 2.0 (±0.1). The extract, purified compounds, or standard (25 µL) was mixed with 300 µL working solution and allowed to incubate in the dark for 30 min at room temperature. Trolox was used as the standard using a concentration range between 0 and 500 µM. The absorbance of the reaction was read at a wavelength of 734 nm using a multiplate reader.

Experiment [5] concerns the target T2, alpha-amylase (procaine pancreas) (Sus scrofa, UniProt P00690).
T2 construct: purchased Sigma-Aldrich, Cape Town, South Africa
T2 sequence (P00690 16-511): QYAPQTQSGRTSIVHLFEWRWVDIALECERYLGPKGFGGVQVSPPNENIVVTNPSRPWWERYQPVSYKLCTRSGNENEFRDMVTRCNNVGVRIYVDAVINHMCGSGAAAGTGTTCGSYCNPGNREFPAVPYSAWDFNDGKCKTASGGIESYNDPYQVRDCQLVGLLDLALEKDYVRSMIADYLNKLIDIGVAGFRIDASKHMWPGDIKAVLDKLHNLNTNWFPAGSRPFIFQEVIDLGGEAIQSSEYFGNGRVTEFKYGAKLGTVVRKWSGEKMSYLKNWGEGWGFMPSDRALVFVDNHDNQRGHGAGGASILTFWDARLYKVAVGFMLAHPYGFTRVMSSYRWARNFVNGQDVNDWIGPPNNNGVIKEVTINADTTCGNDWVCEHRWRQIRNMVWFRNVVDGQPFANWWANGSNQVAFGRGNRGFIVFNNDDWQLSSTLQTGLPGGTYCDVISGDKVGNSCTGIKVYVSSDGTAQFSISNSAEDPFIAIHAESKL
Nature of the experiment: Alpha-amylase inhibitory activity (starch/DNS). The conditions noted are these: mean ± SD, n = 3; samples 100–31.2 μg/mL; NA: not active within the evaluated concentrations. It counts as biochemical.
Description: as §1
The mixture was allowed to incubate for 20 min at 37 °C before the addition of 1% soluble starch (10 μL) and further incubated for another 30 min. A color reagent DNS (100 μL) was added and boiled at 95 °C for 15 min. The change in color was read at a wavelength of […] using a multiplate reader.
The data presented are means ± SD obtained from 96-well-plate readers for all in vitro experiments.

Experiment [6] concerns intracellular de novo triglyceride synthesis. The arrangement: method as in PMID 28034282. The conditions noted are these: without affecting cell viability; cited from earlier work.
For experiment [7], the target named is rat liver diacylglycerol acyltransferase 1 (DGAT1). Also noted: method as in PMID 28034282. Conditions: read-out: IC50 against rat liver DGAT1; cited from earlier work.

T1 sequence (P53341 whole entry): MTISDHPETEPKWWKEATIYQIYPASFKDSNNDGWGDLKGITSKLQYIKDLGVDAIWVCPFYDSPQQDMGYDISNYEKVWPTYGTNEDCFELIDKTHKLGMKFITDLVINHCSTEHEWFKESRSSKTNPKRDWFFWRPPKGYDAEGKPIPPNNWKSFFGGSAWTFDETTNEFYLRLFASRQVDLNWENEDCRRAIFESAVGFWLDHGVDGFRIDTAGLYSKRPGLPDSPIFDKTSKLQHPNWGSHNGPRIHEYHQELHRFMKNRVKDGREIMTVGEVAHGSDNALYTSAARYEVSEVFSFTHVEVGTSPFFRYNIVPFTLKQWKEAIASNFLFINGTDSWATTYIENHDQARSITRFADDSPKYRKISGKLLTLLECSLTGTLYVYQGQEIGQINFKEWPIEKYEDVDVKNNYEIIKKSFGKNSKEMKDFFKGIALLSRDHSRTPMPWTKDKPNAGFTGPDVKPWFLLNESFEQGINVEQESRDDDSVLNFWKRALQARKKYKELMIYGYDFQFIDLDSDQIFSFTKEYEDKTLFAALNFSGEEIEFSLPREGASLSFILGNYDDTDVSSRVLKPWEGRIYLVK

A word on the IC50: it is the concentration that gives 50% inhibition. On to `COc1ccc(-c2cc(=O)c3c(O)cc(OC)cc3o2)cc1` [4,7-dimethylapigenin ether, 4,7-dimethylapigenin], for which, in experiment [1], the 50% inhibitory concentration (IC50) is 96.2 µM. Further, the ORAC in experiment [2] is listed as 6.47 ± 0.01 mM TE/g. Further, in experiment [3], the FRAP came out at 0.61 ± 0.006 mM AAE/g. Moreover, the TEAC in experiment [4] was determined as 3.19 ± 0.003 mM TE/g.

For `COc1c(C(C)C)cc2c(c1O)[C@@]1(C(=O)O)CCCC(C)(C)[C@@H]1CC2` [12-methoxycarnosic acid], the half-maximal inhibitory concentration (IC50) was 107 µM in experiment [1] and 46.8 µM in experiment [5]. In addition, the ORAC in experiment [2] is on record as 20.25 ± 0.01 mM TE/g. Moreover, the FRAP in experiment [3] amounted to 0.51 ± 0.003 mM AAE/g. Further, in experiment [4], the TEAC stood at 0.34 ± 0.003 mM TE/g.

For `CC(C)c1cc2c(c(O)c1O)[C@@]13CCCC(C)(C)[C@@H]1C[C@@H]2OC3=O` [Carnosol, carnosol], the 50% inhibitory concentration (IC50) in experiment [1] is 157 µM; in experiment [5], 59.9 µM; in experiment [7] it was 62.5 µM. In addition, in experiment [2], the ORAC is on record as 23.96 ± 0.01 mM TE/g. Besides, the FRAP in experiment [3] is on record as 3.92 ± 0.002 mM AAE/g. Also, the “deactivation of intracellular de novo triglyceride synthesis” value in experiment [6] is 67.5–90.6%. Also, the TEAC in experiment [4] worked out at 0.33 ± 0.002 mM TE/g.

On to `O=C(O[C@@H]1Cc2c(O)cc(O)cc2O[C@@H]1c1cc(O)c(O)c(O)c1)c1cc(O)c(O)c(O)c1` [EGCG, epigallocatechin gallate, reference compound], for which the ORAC in experiment [2] amounted to 3.98 ± 0.00 mM TE/g. The FRAP in experiment [3] is recorded as 7.53 ± 0.005 mM AAE/g. Also, in experiment [4], the TEAC is on record as 4.15 ± 0.02 mM TE/g.

`CC(C)c1cc2c(c(O)c1O)[C@@]13CCCC(C)(C)[C@@H]1[C@H](OC3=O)[C@H]2O` [Rosmanol, rosmanol]: the figures for the IC50 in experiment [1] and in experiment [5] were 47.3 µM and 118 µM, respectively. Further, in experiment [2], the ORAC is on record as 25.79 ± 0.01 mM TE/g. In experiment [3], the FRAP turned out to be 1.52 ± 0.002 mM AAE/g. Besides, the TEAC in experiment [4] was found to be 2.06 ± 0.003 mM TE/g.

(Values after PMC7699461, “Alpha-Glucosidase and Alpha-Amylase Inhibitory Activities, Molecular Docking, and Antioxidant Capacities of Salvia aurita Constituents” (Antioxidants, 2020).)
